Experimental findings from paper PMC4029159 (Journal of medicinal chemistry, 2013) are described below.

Usually IC50 stands for the concentration needed to halve the response being measured.

The test system of data set [1] is Jurkat J.γ. Description: Cell viability assay. It counts as cell-based.
The test system of data set [2] is Jurkat. The data set can be described thus: Cell viability assay. Format: cell-based.
In data set [3] the test system is DU-145. Description: Cell viability assay. Particulars: for Fold less cytotoxic than 14e, DU145: compared with 14e. Format: cell-based.
The subject of data set [4] is LNCaP. Description: Cell viability assay. It counts as cell-based.
In data set [5] the target is MMP9 (Homo sapiens, UniProt P14780). Description: MMP assay. Format: biochemical. Particulars: 10µM.
Chain of MMP9 (P14780 107-444 limits assumed): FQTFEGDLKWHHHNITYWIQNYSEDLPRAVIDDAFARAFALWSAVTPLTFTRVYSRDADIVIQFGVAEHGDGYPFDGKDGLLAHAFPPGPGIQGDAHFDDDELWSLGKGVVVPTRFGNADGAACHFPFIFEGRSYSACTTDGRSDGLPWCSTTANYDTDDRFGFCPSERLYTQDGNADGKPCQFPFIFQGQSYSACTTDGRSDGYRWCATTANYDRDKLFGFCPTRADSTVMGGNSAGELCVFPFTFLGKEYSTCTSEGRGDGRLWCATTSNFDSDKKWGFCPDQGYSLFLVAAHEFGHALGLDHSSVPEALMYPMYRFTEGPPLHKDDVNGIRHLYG
For data set [6], the target named is MMP2 (Homo sapiens, UniProt P08253). Description: MMP assay. Particulars: 10µM. It counts as biochemical.
Chain of MMP2 (P08253 110-446 limits assumed): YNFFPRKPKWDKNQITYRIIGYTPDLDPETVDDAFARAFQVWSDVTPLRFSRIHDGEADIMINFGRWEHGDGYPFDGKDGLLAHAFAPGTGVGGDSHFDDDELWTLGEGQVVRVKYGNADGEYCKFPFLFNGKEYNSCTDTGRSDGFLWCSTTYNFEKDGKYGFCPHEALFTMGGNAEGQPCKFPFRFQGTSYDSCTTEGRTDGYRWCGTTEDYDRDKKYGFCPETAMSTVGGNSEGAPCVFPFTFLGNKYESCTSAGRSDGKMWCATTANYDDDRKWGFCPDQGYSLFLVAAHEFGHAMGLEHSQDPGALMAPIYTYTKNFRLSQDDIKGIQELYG
In data set [7] the target is T1, MMP1 (Homo sapiens, UniProt P03956).
T1 sequence (P03956 100-269 limits assumed): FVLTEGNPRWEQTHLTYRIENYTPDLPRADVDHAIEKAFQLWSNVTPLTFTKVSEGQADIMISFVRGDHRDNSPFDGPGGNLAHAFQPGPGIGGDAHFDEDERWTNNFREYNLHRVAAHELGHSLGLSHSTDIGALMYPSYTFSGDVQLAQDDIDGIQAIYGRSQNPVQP
Description: MMP assay. Particulars: 10µM. Format: biochemical.

Data set [8] deals with tubulin acetylation (HDAC6 inhibition) in LNCaP cell line. The data set can be described thus: Western blot analysis for tubulin acetylation. Particulars: LNCaP cells, 4 hours, 20 µM and IC50 concentration. It counts as cell-based. (Immunoblotting shows a protein as a band on a membrane.)
The target in data set [9] is MMP13 (Homo sapiens, UniProt P45452). The data set can be described thus: MMP assay. It counts as biochemical. Particulars: 10µM.
The target in data set [10] is MMP3 (Homo sapiens, UniProt P08254). Description: MMP assay. It counts as biochemical. Particulars: 10µM.
Chain of MMP3 (P08254 100-272 limits assumed): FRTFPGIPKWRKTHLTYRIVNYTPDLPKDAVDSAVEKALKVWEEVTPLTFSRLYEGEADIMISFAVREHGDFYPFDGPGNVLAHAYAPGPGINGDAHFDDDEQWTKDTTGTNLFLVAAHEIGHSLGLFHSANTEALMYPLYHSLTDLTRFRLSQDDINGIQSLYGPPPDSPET
Data set [11] deals with MMP14 (Homo sapiens, UniProt P50281). Description: MMP assay. Format: biochemical. The conditions noted are these: 10µM.
Data set [12] has as its target T2, HDAC6 (Homo sapiens, UniProt Q9UBN7).
T2 sequence (Q9UBN7 1-1215): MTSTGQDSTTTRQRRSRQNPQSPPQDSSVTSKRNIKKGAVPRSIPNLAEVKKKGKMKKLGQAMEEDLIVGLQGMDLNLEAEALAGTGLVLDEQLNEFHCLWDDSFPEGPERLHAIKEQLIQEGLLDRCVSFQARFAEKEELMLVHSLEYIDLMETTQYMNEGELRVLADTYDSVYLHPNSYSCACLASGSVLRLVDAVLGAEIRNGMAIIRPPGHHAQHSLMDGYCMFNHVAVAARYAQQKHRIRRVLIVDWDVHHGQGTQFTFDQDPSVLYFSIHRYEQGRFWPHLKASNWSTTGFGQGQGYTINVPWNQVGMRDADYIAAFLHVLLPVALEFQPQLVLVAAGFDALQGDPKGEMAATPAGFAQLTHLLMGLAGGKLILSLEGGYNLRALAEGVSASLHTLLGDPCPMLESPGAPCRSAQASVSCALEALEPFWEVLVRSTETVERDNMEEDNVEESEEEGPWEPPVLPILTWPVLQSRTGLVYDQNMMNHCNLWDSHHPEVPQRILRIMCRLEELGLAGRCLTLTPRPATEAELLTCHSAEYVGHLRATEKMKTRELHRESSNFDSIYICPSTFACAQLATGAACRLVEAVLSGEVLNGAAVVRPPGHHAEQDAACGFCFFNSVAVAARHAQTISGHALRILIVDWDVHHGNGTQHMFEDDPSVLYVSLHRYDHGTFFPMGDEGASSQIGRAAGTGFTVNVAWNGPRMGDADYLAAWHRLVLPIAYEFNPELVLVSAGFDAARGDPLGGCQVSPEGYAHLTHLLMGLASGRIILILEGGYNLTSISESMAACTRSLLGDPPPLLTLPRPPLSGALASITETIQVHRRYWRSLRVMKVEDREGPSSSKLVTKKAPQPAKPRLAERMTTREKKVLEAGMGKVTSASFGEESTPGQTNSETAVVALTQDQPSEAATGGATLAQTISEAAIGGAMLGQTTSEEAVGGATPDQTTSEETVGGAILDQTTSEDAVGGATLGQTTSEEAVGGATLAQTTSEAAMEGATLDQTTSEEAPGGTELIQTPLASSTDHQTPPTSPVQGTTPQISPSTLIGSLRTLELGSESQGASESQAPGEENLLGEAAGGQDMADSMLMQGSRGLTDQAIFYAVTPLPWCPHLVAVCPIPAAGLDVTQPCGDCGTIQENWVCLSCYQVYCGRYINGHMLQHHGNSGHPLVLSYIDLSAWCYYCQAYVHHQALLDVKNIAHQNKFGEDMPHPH
Description: HDAC inhibition by SAMDI mass spectrometry, HDAC6. Format: biochemical.

Data set [13] deals with HDAC1 (Homo sapiens, UniProt Q13547). Description: HDAC inhibition by SAMDI mass spectrometry, HDAC1. Format: biochemical.
Chain of HDAC1 (Q13547 whole entry): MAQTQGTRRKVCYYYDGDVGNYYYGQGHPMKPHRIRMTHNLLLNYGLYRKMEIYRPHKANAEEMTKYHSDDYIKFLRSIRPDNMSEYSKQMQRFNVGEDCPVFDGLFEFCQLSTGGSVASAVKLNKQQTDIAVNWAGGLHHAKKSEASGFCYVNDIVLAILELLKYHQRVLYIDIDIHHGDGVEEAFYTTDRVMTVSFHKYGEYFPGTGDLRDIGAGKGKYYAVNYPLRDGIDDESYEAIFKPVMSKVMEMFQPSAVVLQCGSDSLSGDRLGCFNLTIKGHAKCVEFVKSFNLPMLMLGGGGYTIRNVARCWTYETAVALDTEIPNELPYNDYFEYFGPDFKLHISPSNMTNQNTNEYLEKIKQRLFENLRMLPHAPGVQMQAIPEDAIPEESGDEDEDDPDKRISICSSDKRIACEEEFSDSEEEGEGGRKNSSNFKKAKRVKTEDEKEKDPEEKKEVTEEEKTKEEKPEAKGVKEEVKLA
Data set [14] has as its target T3, MMP7 (Homo sapiens, UniProt P09237).
T3 sequence (P09237 95-267): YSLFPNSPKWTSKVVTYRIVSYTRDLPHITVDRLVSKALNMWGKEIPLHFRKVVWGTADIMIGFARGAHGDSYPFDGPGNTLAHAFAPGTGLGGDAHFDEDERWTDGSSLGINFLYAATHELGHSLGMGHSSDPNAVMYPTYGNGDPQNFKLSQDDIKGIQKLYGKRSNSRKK
Description: MMP assay. It counts as biochemical. The conditions noted are these: 10µM.

Where “and” joins values, the source holds several entries; their conditions need not be identical. Identical values can stand only once.

In the case of `O=C(CCCCCCC(=O)Nc1ccccc1)NO` [SAHA, suberoylanilide hydroxamic acid], in data set [1], the “Activity against Jurkat Jγ, in words” value is “inactive”.

Turning to `Oc1cccn(CCCCCCCn2cc(-c3ccccc3)nn2)c1=S` [Compound 10f, 1-Phenyltriazolylheptyl-3-hydroxypyridin-2-thione], the “Fold less cytotoxic than 14e, wild type Jurkat” value in data set [2] (relative to 14e) stood at 3 fold. For the same compound, in data set [2] (relative to 10d), the “Fold less cytotoxic than 10d, wild type Jurkat” value came out at 3 fold. Besides, the “Fold less cytotoxic than 14e, DU145” value in [3] turned out to be 3 fold. Moreover, the “Fold less cytotoxic than 10d, DU145” value in [3] (compared with 10d) is on record as 2 fold. Further, the “Fold less cytotoxic than 14e, LNCaP” value in data set [4] (compared with 14e) is 3 fold. Moreover, the “Fold less cytotoxic than 10d, LNCaP” value in data set [4] (compared with 10d) was found to be 2 fold.

On to `N#Cc1cccc(-c2cn(CCCCCn3cccc(O)c3=S)nn2)c1` [Compound 14e, 1-(3-Benzonitrile)triazolylpentyl-3-hydroxypyridin-2-thione], for which the “Effect on MMP9 activity” value in [5] was “inactive”. Further, the “Effect on MMP2 activity” value in data set [6] is “inactive”. Moreover, the “Fold more potent than 10d, DU145” value in data set [3] (relative to 10d) was “about 2 fold”. Moreover, in [7], the “Effect on MMP1 activity” value was “inactive”. Besides, the “Tubulin acetylation level (Western blot)” value in data set [8] is on record as “increased tubulin acetylation but to a lesser extent than SAHA”. The “Fold more potent than 10d, LNCaP” value in [4] (relative to 10d) is “about 2 fold”. Further, the “Effect on MMP13 activity” value in data set [9] is “halved”. For the same compound, the “Effect on MMP3 activity” value in data set [10] was “inactive”. Also, in [11], the “Effect on MMP14 activity” value was “inactive”. For the same compound, the “HDAC6 potency, fold more effective than 14b” value in data set [12] (relative to 14b) worked out at 3 fold. For the same compound, the “HDAC6 potency, fold more effective than 10d” value in data set [12] (relative to 10d) is 2.5 fold and 3 fold. The “HDAC1 inhibition, in words” value in data set [13] was “inactive”. For the same compound, the “Effect on MMP7 activity” value in data set [14] was “inactive”.

Take `Cc1ccccc1-c1cn(CCCCCn2cccc(O)c2=S)nn1` [Compound 14c, 1-(2-Tolyl)triazolylpentyl-3-hydroxypyridin-2-thione]: the “Fold less cytotoxic than 14e, DU145” value in data set [3] is reported as 2 fold.

Turning to `CN1CCc2c(c3ccccc3n2Cc2ccc(C(=O)NO)cc2)C1` [Tubastatin A, reference compound], the “Activity against Jurkat Jγ, in words” value in data set [1] was “inactive”. In addition, the “Fold less potent than 10d and 14e, LNCaP” value in [4] (relative to 10d and 14e) is listed as 2 to 3 fold.

As for `Oc1cccn(CCCCCn2cc(-c3ccccc3)nn2)c1=S` [Compound 10d, 1-Phenyltriazolylpentyl-3-hydroxypyridin-2-thione], the “Effect on MMP9 activity” value in data set [5] was “inactive”. Besides, the “Effect on MMP2 activity” value in [6] is “inactive”. The “Effect on MMP1 activity” value in data set [7] was “inactive”. The half-inhibitory concentration (IC50) in [1] (Homo sapiens, Jurkat, 72 h, read-out: Cellular IC50 Jurkat J.γ, 72 hours, MTS) was 1 µM. Besides, the “Tubulin acetylation level (Western blot)” value in [8] was “increased tubulin acetylation but to a lesser extent than SAHA”. For the same compound, the “Effect on MMP13 activity” value in data set [9] is “halved”. For the same compound, in data set [10], the “Effect on MMP3 activity” value was “inactive”. Also, in data set [11], the “Effect on MMP14 activity” value is “inactive”. Further, the “HDAC1 inhibition, in words” value in [13] is “inactive”. In addition, the “Effect on MMP7 activity” value in [14] was “inactive”.
